This test concerns the target T1, IRAK4 (Homo sapiens, UniProt Q9NWZ3).
T1 construct: endogenous in cells; host or cells: Karpas299
T1 sequence (Q9NWZ3 1-460): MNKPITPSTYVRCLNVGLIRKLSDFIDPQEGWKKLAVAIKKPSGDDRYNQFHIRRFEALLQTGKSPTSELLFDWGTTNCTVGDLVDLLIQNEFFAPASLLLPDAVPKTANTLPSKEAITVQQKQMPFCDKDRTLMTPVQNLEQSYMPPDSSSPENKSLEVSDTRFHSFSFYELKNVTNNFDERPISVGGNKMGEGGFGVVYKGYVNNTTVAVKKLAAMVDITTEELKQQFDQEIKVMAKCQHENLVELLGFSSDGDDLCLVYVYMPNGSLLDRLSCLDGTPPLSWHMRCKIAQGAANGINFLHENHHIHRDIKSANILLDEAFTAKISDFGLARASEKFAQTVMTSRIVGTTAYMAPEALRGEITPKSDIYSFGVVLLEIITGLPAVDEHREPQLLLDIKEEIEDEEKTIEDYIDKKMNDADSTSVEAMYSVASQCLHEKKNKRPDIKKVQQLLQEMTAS
Put plainly: IRAK4 Degradation Assay (Karpas299, HTRF/TR-FRET). It counts as cell-based. The method, boiled down:
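Compound potency as DC50 (IC50) came from four-parameter fits of percent IRAK4 degradation. IRAK4 was measured by HTRF (665/620 nm) in lysates of Karpas299 cells seeded at 0.2 million per well. Cells had been treated with compound dilutions for 5 or 24 h.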

Where [1] appears, read: Karpas-299 cells, 24 h treatment, maximum percentage of degradation, read-out: IRAK4 in Karpas-299 (24 h) Dmax (%).
Where [2] appears, read: Karpas-299 cells, 24 h treatment, read-out: IRAK4 in Karpas-299 (24 h) DC50.
The mark [3] stands for this setting: Karpas-299 cells, 5 h treatment, maximum percentage of degradation, read-out: IRAK4 in Karpas-299 (5 h) Dmax (%).
Where [4] appears, read: Karpas-299 cells, 5 h treatment, read-out: IRAK4 in Karpas-299 (5 h) DC50.

Read-outs that look alike come from different tables or passages of the source.

Regarding `COc1cc2nn([C@H]3CC[C@H](CN4CCN(C(=O)C5CCN(c6ccc(N7CCC(=O)NC7=O)cc6)CC5)CC4)CC3)cc2cc1NC(=O)c1cccc(C(F)(F)F)n1` [Example 7, N-(2-((1r,4r)-4-((4-(1-(4-(2,4-dioxotetrahydropyrimidin-1(2H)-yl)phenyl)piperidine-4-carbonyl)piperazin-1-yl)methyl)cyclohexyl)-6-methoxy-2H-indazol-5-yl)-6-(trifluoromethyl)picolinamide], the DC50 stood at 137 nM (Degradation (Karpas-299), comparison table, Linker Type A, read-out: Compound (Linker Type A) DC50) and 137 nM under setting [2]. For the same compound, the Dmax runs as follows: (Degradation (Karpas-299), comparison table, Linker Type A, read-out: Compound (Linker Type A) Dmax (%)) 66%; under setting [1], 66%.
Regarding `N#Cc1cnc2c(C(=O)Nc3ccc4nn([C@H]5CC[C@H](N6CCN(C7CN(c8cc(F)c([C@H]9CCC(=O)NC9=O)c(F)c8)C7)CC6)CC5)cc4c3)cnn2c1` [Example 424, 6-cyano-N-(2-((1R,4r)-4-(4-(1-(4-((R)-2,6-dioxopiperidin-3-yl)-3,5-difluorophenyl)azetidin-3-yl)piperazin-1-yl)cyclohexyl)-2H-indazol-5-yl)pyrazolo[1,5-a]pyrimidine-3-carboxamide], the Dmax under setting [1] stood at 42%. Under setting [2], the DC50 was above 1000 nM.
Turning to `O=C1CC[C@H](c2c(F)cc(N3CC(C(=O)N4CCN([C@H]5CC[C@H](n6cc(NC(=O)c7cnn(-c8ccnc(NCC(F)(F)F)c8)n7)c(C(F)F)n6)CC5)CC4)C3)cc2F)C(=O)N1` [Example 51, N-(3-(difluoromethyl)-1-((1r,4r)-4-(4-(1-(4-((R)-2,6-dioxopiperidin-3-yl)-3,5-difluorophenyl)azetidine-3-carbonyl)piperazin-1-yl)cyclohexyl)-1H-pyrazol-4-yl)-2-(2-((2,2,2-trifluoroethyl)amino)pyridin-4-yl)-2H-1,2,3-triazole-4-carboxamide], the maximal degradation (Dmax) by setting is: under setting [3], 93%; under setting [1], 96%. Besides, the DC50 stood at 4.8 nM under setting [4] and 1.2 nM under setting [2].
The corresponding values for `CC(C)(O)c1cc2nc(C3CCN(C4CCN(C(=O)[C@H]5CCN(c6ccc(N7CCC(=O)NC7=O)cc6)C5)CC4)CC3)cn2cc1NC(=O)c1cccc(C(F)(F)F)n1` [Example 128, (S)—N-(2-(1′-(1-(4-(2,4-dioxotetrahydropyrimidin-1(2H)-yl)phenyl)pyrrolidine-3-carbonyl)-[1,4′-bipiperidin]-4-yl)-7-(2-hydroxypropan-2-yl)imidazo[1,2-a]pyridin-6-yl)-6-(trifluoromethyl)picolinamide] are 90%, 100%, 41 nM and 7.2 nM.
`O=C1CC[C@H](c2c(F)cc(N3CC(C(=O)N4CCN([C@H]5CC[C@H](n6cc7cc(NC(=O)c8cccc(C(F)(F)F)n8)c(C(=O)NC8CC8)cc7n6)CC5)CC4)C3)cc2F)C(=O)N1` [Example 130]: the maximal degradation (Dmax) under setting [1] was 98%. The DC50 under setting [2] stood at 0.5 nM.
Regarding `COc1cc2nn(C3CCN(C4CN(C(=O)[C@@H]5CCN(c6cc(F)c([C@H]7CCC(=O)NC7=O)c(F)c6)C5)C4)CC3)cc2cc1NC(=O)c1cccc(C(F)(F)F)n1` [Example 42, N-(2-(1-(1-((R)-1-(4-((R)-2,6-dioxopiperidin-3-yl)-3,5-difluorophenyl)pyrrolidine-3-carbonyl)azetidin-3-yl)piperidin-4-yl)-6-methoxy-2H-indazol-5-yl)-6-(trifluoromethyl)picolinamide], the Dmax amounted to 83% under setting [3] and 95% under setting [1]. Also, the DC50 is 4.9 nM under setting [4] and 2.2 nM under setting [2].
Consider `CC(C)(O)c1cc2nn(C3CCN(C4CCN(C(=O)[C@H]5CCN(c6ccc(N7CCC(=O)NC7=O)cc6)C5)CC4)CC3)cc2cc1NC(=O)c1cccc(C(F)(F)F)n1` [Example 163, (S)—N-(2-(1′-(1-(4-(2,4-dioxotetrahydropyrimidin-1(2H)-yl)phenyl)pyrrolidine-3-carbonyl)-[1,4′-bipiperidin]-4-yl)-6-(2-hydroxypropan-2-yl)-2H-indazol-5-yl)-6-(trifluoromethyl)picolinamide], for which the Dmax under setting [1] turned out to be 95%. In addition, the DC50 under setting [2] worked out at 3.8 nM.
Take `CC(C)(O)c1cc2nn(C3CCN(C4CCN(C(=O)C5CN(c6cc(F)c([C@H]7CCC(=O)NC7=O)c(F)c6)C5)CC4)CC3)cc2cc1NC(=O)c1cccc(C(F)(F)F)n1` [Example 160, (R)—N-(2-(1′-(1-(4-(2,6-dioxopiperidin-3-yl)-3,5-difluorophenyl)azetidine-3-carbonyl)-[1,4′-bipiperidin]-4-yl)-6-(2-hydroxypropan-2-yl)-2H-indazol-5-yl)-6-(trifluoromethyl)picolinamide]: the Dmax reads like this: under setting [3], 90%; under setting [1], 99%. Further, the DC50 by setting is: under setting [4], 4 nM; under setting [2], 0.4 nM.
Regarding `COc1cc2nn([C@H]3CC[C@H](NC(=O)C4CCN(c5ccc6c(c5)C(=O)N(C5CCC(=O)NC5=O)C6=O)CC4)CC3)cc2cc1NC(=O)c1cccc(C(F)(F)F)n1` (some centres unmarked) [Example 32, N-(2-((1r,4r)-4-(1-(2-(2,6-dioxopiperidin-3-yl)-1,3-dioxoisoindolin-5-yl)piperidine-4-carboxamido)cyclohexyl)-6-methoxy-2H-indazol-5-yl)-6-(trifluoromethyl)picolinamide], the Dmax by setting is: under setting [3], 91%; under setting [1], 95%. Besides, the DC50 was 15 nM under setting [4] and 2.7 nM under setting [2].
Regarding `CC(C)(O)c1cc2nn([C@H]3CC[C@H](N4CCN(C(=O)[C@@H]5CCN(c6cc(F)c([C@H]7CCC(=O)NC7=O)c(F)c6)C5)CC4)CC3)cc2cc1NC(=O)c1cccc(C(F)(F)F)n1` [Example 39, N-(2-((1R,4r)-4-(4-((R)-1-(4-((R)-2,6-dioxopiperidin-3-yl)-3,5-difluorophenyl)pyrrolidine-3-carbonyl)piperazin-1-yl)cyclohexyl)-6-(2-hydroxypropan-2-yl)-2H-indazol-5-yl)-6-(trifluoromethyl)picolinamide], the Dmax worked out at 96% under setting [3] and 99% under setting [1]. Moreover, the DC50 reads like this: under setting [4], 4.6 nM; under setting [2], 0.8 nM.
In the case of `NC(=O)c1nn([C@H]2CC[C@H](N3CCN(C4CC(c5ccc(N[C@@H]6CCC(=O)NC6=O)cc5)C4)CC3)CC2)cc1NC(=O)c1coc(-c2ccnc(NCC(F)(F)F)c2)n1` (stereo partly drawn) [Example 9, N-(3-carbamoyl-1-((1r,4r)-4-(4-(3-(4-(((R)-2,6-dioxopiperidin-3-yl)amino)phenyl)cyclobutyl)piperazin-1-yl)cyclohexyl)-1H-pyrazol-4-yl)-2-(2-((2,2,2-trifluoroethyl)amino)pyridin-4-yl)oxazole-4-carboxamide], the Dmax under setting [1] was 95%. For the same compound, the half-maximal degradation concentration (DC50) under setting [2] was determined as 2.5 nM.
Turning to `O=C1CC[C@H](c2c(F)cc(N3CC[C@@H](C(=O)N4CCN([C@H]5CC[C@H](n6cc(NC(=O)c7coc(-c8ccnc(NCC9CC9)c8)n7)c(C(F)F)n6)CC5)C(=O)C4)C3)cc2F)C(=O)N1` [Example 101, 2-(2-((cyclopropylmethyl)amino)pyridin-4-yl)-N-(3-(difluoromethyl)-1-((1R,4r)-4-(4-((R)-1-(4-((R)-2,6-dioxopiperidin-3-yl)-3,5-difluorophenyl)pyrrolidine-3-carbonyl)-2-oxopiperazin-1-yl)cyclohexyl)-1H-pyrazol-4-yl)oxazole-4-carboxamide], the maximal degradation (Dmax) under setting [1] worked out at 97%. In addition, the DC50 under setting [2] is 1.2 nM.
Regarding `N#Cc1cnn2c(C(=O)Nc3cc4cn([C@H]5CC[C@H](N6CCN(C7CN(c8cc(F)c([C@H]9CCC(=O)NC9=O)c(F)c8)C7)CC6)CC5)nc4c4c3OC(F)(F)O4)ccc2c1` [Example 385, 3-cyano-N-(2-((1R,4r)-4-(4-(1-(4-((R)-2,6-dioxopiperidin-3-yl)-3,5-difluorophenyl)azetidin-3-yl)piperazin-1-yl)cyclohexyl)-7,7-difluoro-2H-[1,3]dioxolo[4,5-g]indazol-5-yl)pyrrolo[1,2-b]pyridazine-7-carboxamide], the Dmax under setting [1] was 91%. The DC50 under setting [2] was 4.8 nM.
Take `COc1cc2nn([C@H]3CC[C@H](N4CCN(C(=O)[C@@H]5CCN(c6cc(F)c(N7CCC(=O)NC7=O)c(F)c6)C5)CC4)CC3)cc2cc1NC(=O)c1cccc(C(F)(F)F)n1` [Example 177, N-(2-((1R,4r)-4-(4-((R)-1-(4-(2,4-dioxotetrahydropyrimidin-1(2H)-yl)-3,5-difluorophenyl)pyrrolidine-3-carbonyl)piperazin-1-yl)cyclohexyl)-6-methoxy-2H-indazol-5-yl)-6-(trifluoromethyl)picolinamide]: the Dmax by setting is: under setting [3], 94%; under setting [1], 97%. The DC50 by setting is: under setting [4], 44 nM; under setting [2], 7.8 nM.

Source of the values: patent US20250195513A1, “DEGRADATION OF IRAK4 BY CONJUGATION OF IRAK4 INHIBITORS WITH E3 LIGASE LIGAND AND METHODS OF USE” (BeiGene, Ltd., priority 2022, published 2025).
